According to PubChem BioAssay AID2060486 (Molecular Pharmacology Branch, DTP, NCI, 2025):

System: IGROV1 complex spheroids (HUVEC, MSC), viability % test/control
Experiment: Anticancer human tumor IGROV1 cell line growth inhibition [GQUAD];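 also: spheroids exposed to compounds for 7 days before readout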;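 as to viability, T/C: 100% = DMSO vehicle control viability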
Settings: for IC50: curve of first compound; for viability, T/C: stronger effect = lower value
Summary of the method: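 Multi-cell-type spheroids of tumor cells with HUVEC and mesenchymal stem cells, treated with drug combinations. Concentrations descend in half-log steps from near clinical Cmax, or from 10 microM where Cmax is unknown; viability read-out.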

[1] = second compound 0.0316 µM, first compound 0.0316 µM
[2] = second compound 0.0316 µM, first compound 0.1 µM
[3] = second compound 0.0316 µM, first compound 0.316 µM
[4] = second compound 0.0316 µM, first compound 1 µM
[5] = second compound 0.0316 µM, first compound 3.16 µM
[6] = second compound 0.0316 µM, first compound 10 µM
[7] = second compound 0.1 µM, first compound 0.0316 µM
[8] = second compound 0.1 µM, first compound 0.1 µM
[9] = second compound 0.1 µM, first compound 0.316 µM
[10] = second compound 0.1 µM, first compound 1 µM
[11] = second compound 0.1 µM, first compound 3.16 µM
[12] = second compound 0.1 µM, first compound 10 µM
[13] = second compound 0.316 µM, first compound 0.0316 µM
[14] = second compound 0.316 µM, first compound 0.1 µM
[15] = second compound 0.316 µM, first compound 0.316 µM
[16] = second compound 0.316 µM, first compound 1 µM
[17] = second compound 0.316 µM, first compound 3.16 µM
[18] = second compound 0.316 µM, first compound 10 µM
[19] = second compound 1 µM, first compound 0.0316 µM
[20] = second compound 1 µM, first compound 0.1 µM
[21] = second compound 1 µM, first compound 0.316 µM
[22] = second compound 1 µM, first compound 1 µM
[23] = second compound 1 µM, first compound 3.16 µM
[24] = second compound 1 µM, first compound 10 µM
[25] = second compound 3.16 µM, first compound 0.0316 µM
[26] = second compound 3.16 µM, first compound 0.1 µM
[27] = second compound 3.16 µM, first compound 0.316 µM
[28] = second compound 3.16 µM, first compound 1 µM
[29] = second compound 3.16 µM, first compound 3.16 µM
[30] = second compound 3.16 µM, first compound 10 µM
[31] = second compound 10 µM, first compound 0.0316 µM
[32] = second compound 10 µM, first compound 0.1 µM
[33] = second compound 10 µM, first compound 0.316 µM
[34] = second compound 10 µM, first compound 1 µM
[35] = second compound 10 µM, first compound 3.16 µM
[36] = second compound 10 µM, first compound 10 µM

Q: Which results are given for `CCCS(=O)(=O)Nc1ccc(F)c(C(=O)c2c[nH]c3ncc(-c4ccc(Cl)cc4)cc23)c1F` + CN(C)c1ccc(Nc2c3ccc(NC(=O)CCN4CCCC4)cc3nc3cc(NC(=O)CCN4CCCC4)ccc23)cc1?
A: IC50 (second compound 0.0316 µM): 5670 nM; IC50 (second compound 0.1 µM): 5610 nM; IC50 (second compound 0.316 µM): 5390 nM; IC50 (second compound 1 µM): 5190 nM; IC50 (second compound 3.16 µM): 4480 nM; IC50 (second compound 10 µM): 1460 nM; viability, T/C [1]: 103%; viability, T/C [2]: 84.7%; viability, T/C [3]: 112%; viability, T/C [4]: 79.3%; viability, T/C [5]: 86.7%; viability, T/C [6]: 17.7%; viability, T/C [7]: 103%; viability, T/C [8]: 73.7%; viability, T/C [9]: 90.4%; viability, T/C [10]: 72%; viability, T/C [11]: 83.5%; viability, T/C [12]: 16.2%; viability, T/C [13]: 86.2%; viability, T/C [14]: 99.7%; viability, T/C [15]: 98%; viability, T/C [16]: 80.5%; viability, T/C [17]: 82.3%; viability, T/C [18]: 15.1%; viability, T/C [19]: 57.9%; viability, T/C [20]: 97.9%; viability, T/C [21]: 88%; viability, T/C [22]: 89.3%; viability, T/C [23]: 77.7%; viability, T/C [24]: 13.2%; viability, T/C [25]: 78.1%; viability, T/C [26]: 88.7%; viability, T/C [27]: 82.4%; viability, T/C [28]: 96.2%; viability, T/C [29]: 67.4%; viability, T/C [30]: 9.77%; viability, T/C [31]: 53.1%; viability, T/C [32]: 59.3%; viability, T/C [33]: 60.7%; viability, T/C [34]: 67.9%; viability, T/C [35]: 29.2%; viability, T/C [36]: 3.73%

Q: What does the source list for `Cc1[nH]c2ccccc2c1CCNCc1ccc(/C=C/C(=O)NO)cc1` + CN(C)c1ccc(Nc2c3ccc(NC(=O)CCN4CCCC4)cc3nc3cc(NC(=O)CCN4CCCC4)ccc23)cc1?
A: IC50 (second compound 0.0316 µM): 19.1 nM; IC50 (second compound 0.1 µM): 10.2 nM; IC50 (second compound 0.316 µM): 22.7 nM; IC50 (second compound 1 µM): 14.7 nM; IC50 (second compound 3.16 µM): 12.4 nM; IC50 (second compound 10 µM): 11.7 nM; viability, T/C (second compound 0.0316 µM, first compound 0.000999 µM): 104%; viability, T/C (second compound 0.0316 µM, first compound 0.00316 µM): 84.2%; viability, T/C (second compound 0.0316 µM, first compound 0.00999 µM): 79.3%; viability, T/C [1]: 28.5%; viability, T/C (second compound 0.0316 µM, first compound 0.0999 µM): 4.27%; viability, T/C [3]: 0.32%; viability, T/C (second compound 0.1 µM, first compound 0.000999 µM): 84.3%; viability, T/C (second compound 0.1 µM, first compound 0.00316 µM): 67.5%; viability, T/C (second compound 0.1 µM, first compound 0.00999 µM): 51.4%; viability, T/C [7]: 30.1%; viability, T/C (second compound 0.1 µM, first compound 0.0999 µM): 3.89%; viability, T/C [9]: 0.33%; viability, T/C (second compound 0.316 µM, first compound 0.000999 µM): 77.1%; viability, T/C (second compound 0.316 µM, first compound 0.00316 µM): 77.7%; viability, T/C (second compound 0.316 µM, first compound 0.00999 µM): 70.1%; viability, T/C [13]: 42.1%; viability, T/C (second compound 0.316 µM, first compound 0.0999 µM): 4.59%; viability, T/C [15]: 0.38%; viability, T/C (second compound 1 µM, first compound 0.000999 µM): 65.2%; viability, T/C (second compound 1 µM, first compound 0.00316 µM): 89%; viability, T/C (second compound 1 µM, first compound 0.00999 µM): 54.2%; viability, T/C [19]: 31.2%; viability, T/C (second compound 1 µM, first compound 0.0999 µM): 5.62%; viability, T/C [21]: 0.2%; viability, T/C (second compound 3.16 µM, first compound 0.000999 µM): 64%; viability, T/C (second compound 3.16 µM, first compound 0.00316 µM): 82.1%; viability, T/C (second compound 3.16 µM, first compound 0.00999 µM): 48.8%; viability, T/C [25]: 29.6%; viability, T/C (second compound 3.16 µM, first compound 0.0999 µM): 4.53%; viability, T/C [27]: 0.37%; viability, T/C (second compound 10 µM, first compound 0.000999 µM): 53%; viability, T/C (second compound 10 µM, first compound 0.00316 µM): 55.4%; viability, T/C (second compound 10 µM, first compound 0.00999 µM): 56.6%; viability, T/C [31]: 18.1%; viability, T/C (second compound 10 µM, first compound 0.0999 µM): 4.24%; viability, T/C [33]: 0.47%

Q: `O=C(NO)c1cnc(N2CCN(S(=O)(=O)c3ccc4ccccc4c3)CC2)nc1` + CN(C)c1ccc(Nc2c3ccc(NC(=O)CCN4CCCC4)cc3nc3cc(NC(=O)CCN4CCCC4)ccc23)cc1 was tested. Which IC50 (second compound 0.0316 µM) did it give?
A: The IC50 was 60.1 nM.

Q: What about the IC50 (second compound 0.1 µM) of the same molecule?
A: The IC50 was 63.6 nM.

Q: And the IC50 (second compound 0.316 µM)?
A: Its IC50 is 55.6 nM.

Q: What about the IC50 (second compound 1 µM) of the same molecule?
A: Its IC50 is 41.4 nM.

Q: And the IC50 (second compound 3.16 µM)?
A: Its IC50 is 47.2 nM.

Q: And the IC50 (second compound 10 µM)?
A: The IC50 was < 31.6 nM.

Q: And the viability, T/C [1]?
A: Its viability, T/C is 69.9%.

Q: And the viability, T/C [2]?
A: The viability, T/C was 34.2%.

Q: And the viability, T/C [3]?
A: Its viability, T/C is 4.85%.

Q: And the viability, T/C [4]?
A: Its viability, T/C is 0.26%.

Q: And the viability, T/C [5]?
A: The viability, T/C was 0.09%.

Q: What about the viability, T/C [6] of the same molecule?
A: Its viability, T/C is 0.1%.

Q: What about the viability, T/C [7] of the same molecule?
A: The viability, T/C was 74.8%.

Q: What about the viability, T/C [8] of the same molecule?
A: Its viability, T/C is 33.9%.

Q: And the viability, T/C [9]?
A: Its viability, T/C is 4.46%.

Q: And the viability, T/C [10]?
A: The viability, T/C was 0.26%.

Q: And the viability, T/C [11]?
A: The viability, T/C was 0.07%.

Q: What about the viability, T/C [12] of the same molecule?
A: The viability, T/C was 0.09%.

Q: And the viability, T/C [13]?
A: The viability, T/C was 66.6%.

Q: And the viability, T/C [14]?
A: Its viability, T/C is 32.6%.

Q: And the viability, T/C [15]?
A: The viability, T/C was 5.36%.

Q: And the viability, T/C [16]?
A: Its viability, T/C is 0.25%.

Q: What about the viability, T/C [17] of the same molecule?
A: Its viability, T/C is 0.06%.

Q: What about the viability, T/C [18] of the same molecule?
A: The viability, T/C was 0.08%.

Q: What about the viability, T/C [19] of the same molecule?
A: The viability, T/C was 58%.

Q: And the viability, T/C [20]?
A: Its viability, T/C is 23.6%.

Q: And the viability, T/C [21]?
A: Its viability, T/C is 3.31%.

Q: What about the viability, T/C [22] of the same molecule?
A: Its viability, T/C is 0.23%.

Q: And the viability, T/C [23]?
A: Its viability, T/C is 0.06%.

Q: And the viability, T/C [24]?
A: The viability, T/C was 0.08%.

Q: And the viability, T/C [25]?
A: The viability, T/C was 64.3%.

Q: What about the viability, T/C [26] of the same molecule?
A: The viability, T/C was 23.4%.

Q: What about the viability, T/C [27] of the same molecule?
A: The viability, T/C was 3.69%.

Q: And the viability, T/C [28]?
A: Its viability, T/C is 0.27%.

Q: What about the viability, T/C [29] of the same molecule?
A: The viability, T/C was 0.07%.

Q: What about the viability, T/C [30] of the same molecule?
A: The viability, T/C was 0.08%.

Q: And the viability, T/C [31]?
A: The viability, T/C was 45.4%.

Q: What about the viability, T/C [32] of the same molecule?
A: The viability, T/C was 14.4%.

Q: And the viability, T/C [33]?
A: The viability, T/C was 3.73%.

Q: What about the viability, T/C [34] of the same molecule?
A: Its viability, T/C is 0.21%.

Q: And the viability, T/C [35]?
A: The viability, T/C was 0.12%.

Q: What about the viability, T/C [36] of the same molecule?
A: Its viability, T/C is 0.11%.
